From ChEMBL document CHEMBL1157463, “Interaction of methimazole with I2: X-ray crystal structure of the charge transfer complex methimazole-I2. implications for the mechanism of action of methimazole-based antithyroid drugs” (J Med Chem, 2008)

Assay: Antioxidant activity assessed as inhibition of lactoperoxidase-catalyzed oxidation of 2,2'-azinobis([…])
Type: functional

IC50	Structure (SMILES)
1.4 µM	Cn1cc[nH][c+]1SS[c+]1[nH]ccn1C.[O-][Cl+3]([O-])([O-])[O-].[O-][Cl+3]([O-])([O-])[O-]
5.6 µM	Cn1ccnc1S [METHIMAZOLE]
